# Source: patent US20180325872A1, “COMPOUNDS FOR TREATMENT OF CANCER” (UNIVERSITY OF TENNESSEE RESEARCH FOUNDATION, priority 2013, published 2018)
# Read-outs that look alike come from different tables or passages of the source.
# What was measured:
# Bovine brain tubulin [1] = molecular target: T1, Bovine brain tubulin (Bos taurus, UniProt P81947+Q6B856); assay: In vitro microtubule polymerization assay (Example 6); format: biochemical; conditions: absorbance at 340 nm, 15 min; for inhibition of tubulin polymerization: 10 μM
# T1 construct: purchased Cytoskeleton, Denver, Colo; host or cells: brain tissue
# Procedure: The absorbance at 340 nm was monitored every 1 min for 15 min by the SYNERGY 4 Microplate Reader (Bio-Tek Instruments, Winooski, Vt.). The spectrophotometer was set at 37° C. for tubulin polymerization.
# B16-F1 melanoma cells = assay: B16-F1 melanoma colony formation assay in soft agar; format: cell-based, mouse; conditions: 14 days
# Procedure: B16-F1 melanoma cells were plated at a colony-forming density (2000 cells per well on six-well plates) on top of 0.8% base agar. Cells were grown in 0.4% agar together with DMEM medium supplemented with fetal bovine serum and an antibiotic-antimycotic solution at 37° C. in an atmosphere of 95% air and 5% CO2. […] Compounds were added to the media from 1 mM DMSO stock solutions, and a corresponding dilution of DMSO was used as control. Cells were grown for 14 days. Plates were photographed, and the number of colonies was measured by Artek 880 Automated Colony Counter (Artek Systems Corporation, Farmingdale, N.Y.).
# [2] = system: melanoma nodules in the lungs; assay: Melanoma lung metastasis model in mice; format: in vivo, mouse; conditions: i.p. injection 5 days per week for 2 weeks (n=8 per group)
# Description: Panel A: Representative photos of lungs with melanoma nodules (black dots, n=8 per group). Treatment was i.p. injection 5 days per week for 2 weeks. Panel B: Number of melanoma nodules on each lung. Points: individual nodule number; long line in the middle: mean; short line on the top and bottom: 95% confidence intervals ** and ##: p<0.01. Panel C: Mouse body weight changes during the experiment. Points: means; bars: SD. Control: vehicle solution only.
# A375RF21 = assay: In vitro combination assay (combination index) in A375RF21; format: cell-based, human; conditions: combination with vemurafenib
# Description: (§3) Cell proliferation viability was investigated using MTS or SRB assay as described previously. An in vitro study of the combination of vemurafenib and the tubulin inhibitors was designed and conducted using CalcuSyn software (Biosoft, Ferguson, Mo.) with five duplicates of each set of treatment. Drug concentrations were selected based on the IC50 value of each drug tested from a pilot study.
# A375RF21 cells [3] = assay: Cell cycle analysis (flow cytometry) in A375RF21; format: cell-based, human; conditions: for G2/M arrest: A375RF21, 20 nM
# Procedure: (§1) Flow cytometry analysis was performed as described before (Wang Z, Chen J, Wang J, et al. “Novel tubulin polymerization inhibitors overcome multidrug resistance and reduce melanoma lung metastasis.” Pharm. Res. (2012) 29: 3040-3052). To determine cell cycle distributions in the G2 and M phases (FIG. 23), cells were harvested with trypsin, stained using antiphospho-histone H3-AlexaFluor® 488 antibody on ice for one hour in the dark, followed by stained using PI/RNase solution for 30 minutes at room temperature in the dark per the manufacturer's instructions (#FCCH025103, EMD Millipore Corporation, Ballerica, Mass.). Data were further processed and graphs were prepared using the Modfit 2.0 program (Verity Software House, Topsham, Me.).
# [4] = system: pAKT/tAKT and pERK in A375RF21 cells; assay: Western blot analysis in A375RF21; format: cell-based, human
# Procedure: (§2) At the indicated time treatment, human melanoma A375RF21, MDA-MB-435 or WM164 cells were collected to investigate relevant cascade protein or apoptosis markers by western blots. Total protein was extracted by lysing cells with RIPA buffer (Sigma-Aldrich, St. Louis, Mo.) containing phosphatase-proteinase inhibitor cocktail (Sigma-Aldrich, St. Louis, Mo.). General protein concentration was then determined by BCA method using kit (Sigma-Aldrich, St. Louis, Mo.). The cell lysates were diluted to equal general protein concentration using Laemmli loading buffer (Bio-Rad, Hercules, Calif.) and boiled for 5 min to denature the protein. Then group samples containing 10 μg general proteins were loaded to each well of 4-15% Tris-HCl pre-cast polyacrylamide gel (Bio-Rad, Hercules, Calif.) for electrophoresis and subsequently transferred to 0.2 μm nitrocellulose membrane (Bio-Rad, Hercules, Calif.). […] Target proteins were detected by incubating with 1× LumiGLO® reagent (Cell Signaling, #7003) for one minute and exposed to x-ray film. The films were scanned with grey scale and lane intensities were quantified with the ImageJ software (NIH, Bethesda, Md., USA).
# OVCAR-8 = assay: In vitro growth inhibition, OVCAR-8; format: cell-based; conditions: Homo sapiens, OVCAR-8; Table 9; read-out: IC50 ± SEM (nM) OVCAR-8
# NCl/ADR-RES = assay: In vitro growth inhibition, NCI/ADR-RES; format: cell-based; conditions: Homo sapiens, Table 9, read-out: IC50 ± SEM (nM) NCl/ADR-RES
# pAKT/tAKT in WM164 cells = assay: Western blot analysis in WM164; format: cell-based, human; conditions: WM164, 48 h
# Procedure: as §2
# [5] = system: pAKT/tAKT in MDA-MB-435 cells; assay: Western blot analysis in MDA-MB-435; format: cell-based, human; conditions: MDA-MB-435, 48 h
# Procedure: as §2
# [6] = system: A375 human melanoma xenograft; conditions: 12da 25 mg/kg; Wang Z et al., Pharm. Res. 29(11); cited from earlier work
# [7] = system: three melanoma cell lines and four human prostate cancer cell lines; assay: Antiproliferative activity, average over melanoma and prostate cancer cell lines; format: cell-based; conditions: for IC50: Homo sapiens, discussion of Tables 8-10
# [8] = system: A375 human melanoma xenograft; assay: A375 human melanoma xenograft in SHO nude mice; format: in vivo; conditions: 12fb 25 mg/kg, 31 days
# Procedure: SHO nude mice bearing an A375 human melanoma xenograft (n=5 per group). Each mouse received 2.5×10^6 cells by s.c. injection into the flank. 30 μL i.p. daily treatments were started when the tumor size reached ˜150 mm^3. Control, vehicle solution only; points, means; bars, SD.
# In vivo evaluation of efficacy. […] The cell suspension (100 μL) was injected subcutaneously in the right dorsal flank of each mouse. When tumor size reached about 100-150 mm^3, about 7 days after cell inoculation, all mice bearing tumors were divided into control and treatment groups based on tumor size (n=5 per group). Each group had similar average tumor size. Mice in control groups (negative control) were injected intraperitoneally with 50 μL vehicle solution only or DTIC at 60 mg/kg (positive control) once daily. Tumor volume was measured every 2 days with a traceable electronic digital caliper (Fisher Scientific, Inc., Pittsburgh, Pa.) and calculated using the formula a×b^2×0.5, where a and b represented the larger and smaller diameters, respectively. Tumor volume was expressed in cubic millimeters. Data were expressed as mean±SE for each group and plotted as a function of time. […] Animal activity and average body weight of each group were monitored during the entire experiment period to assess compound toxicity. […]
# A375 = assay: Cell culture cytotoxicity (SRB) assay, A375; format: cell-based, human; conditions: Table 9, SRB, 48 h; read-out: IC50 ± SEM (nM) A375
# Du 145 = assay: Cell culture cytotoxicity (SRB) assay, Du 145; conditions: read-out: inhibitory effects DU145; Table 10B, anti-proliferation
# PC-3 = assay: Apoptosis (cytoplasmic DNA-histone complex formation) in PC-3; format: cell-based, human; conditions: PC-3, 0.8 to 600 nmol/L, 24 h
# PC-3/TxR = assay: Apoptosis (cytoplasmic DNA-histone complex formation) in PC-3/TxR; format: cell-based, human; conditions: 0.8 to 600 nmol/L, 24 h
# PC-3/TxR tumors = conditions: PC-3/TxR xenograft, day 1 and 9; for Tumor size, End: end point day 19
# PC-3 tumors = assay: PC-3 xenograft in nude mice; conditions: day 1 and 9, end point day 19
# A375RF21 cells [9] = assay: Apoptosis detection (Annexin V-FITC / propidium iodide); conditions: A375RF21, 48 h, Annexin V / propidium iodide flow cytometry
# A375 cells [10] = assay: Cell cycle analysis (flow cytometry) in A375; format: cell-based, human
# Procedure: as §1
# A375 cells [11] = assay: Cell proliferation MTS assay, parental A375; conditions: Homo sapiens, A-375, read-out: IC50 for proliferation inhibition
# Description: as §3
# Bovine brain tubulin [12] = assay: HTS-tubulin polymerization assay (Example 1); conditions: 20 μM, purified-protein assay
# A375RF21 cells [13] = assay: Cell proliferation MTS assay, vemurafenib-resistant A375RF21
# Description: as §3
# T1 sequence (P81947 whole entry): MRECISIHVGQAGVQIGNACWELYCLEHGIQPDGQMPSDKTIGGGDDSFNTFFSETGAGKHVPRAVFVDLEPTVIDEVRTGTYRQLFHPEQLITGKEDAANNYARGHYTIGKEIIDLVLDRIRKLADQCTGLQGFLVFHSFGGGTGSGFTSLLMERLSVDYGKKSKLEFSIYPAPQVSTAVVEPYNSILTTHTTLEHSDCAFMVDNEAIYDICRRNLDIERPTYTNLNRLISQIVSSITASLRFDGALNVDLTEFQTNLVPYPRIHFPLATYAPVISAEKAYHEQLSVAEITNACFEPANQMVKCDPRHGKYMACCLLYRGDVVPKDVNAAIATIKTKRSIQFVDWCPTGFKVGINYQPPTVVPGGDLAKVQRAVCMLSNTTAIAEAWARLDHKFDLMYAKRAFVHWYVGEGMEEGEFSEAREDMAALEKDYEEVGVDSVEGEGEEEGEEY
# T1 sequence (Q6B856 whole entry): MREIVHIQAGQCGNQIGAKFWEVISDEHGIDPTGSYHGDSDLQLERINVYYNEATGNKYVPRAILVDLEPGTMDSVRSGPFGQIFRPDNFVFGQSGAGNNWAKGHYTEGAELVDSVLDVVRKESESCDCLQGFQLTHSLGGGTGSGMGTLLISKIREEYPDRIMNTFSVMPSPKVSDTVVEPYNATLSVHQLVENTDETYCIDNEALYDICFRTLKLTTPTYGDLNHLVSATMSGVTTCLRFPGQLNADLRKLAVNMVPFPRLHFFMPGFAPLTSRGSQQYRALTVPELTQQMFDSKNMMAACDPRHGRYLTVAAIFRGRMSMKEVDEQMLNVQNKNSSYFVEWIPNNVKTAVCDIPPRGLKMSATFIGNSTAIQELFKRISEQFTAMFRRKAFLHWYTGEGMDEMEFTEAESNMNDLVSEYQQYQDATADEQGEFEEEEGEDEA
smiles,measurement,setting,value
"COc1ccc(-c2nc(C(=O)c3ccc(F)cc3)c[nH]2)cc1 [12cb, (4-fluorophenyl)(2-(4-methoxyphenyl)-1H-imidazol-4-yl)methanone]",inhibition of tubulin polymerization,Bovine brain tubulin [1],inhibited tubulin polymerization
same,inhibition at 10 µM,Bovine brain tubulin [1],~80%
same,inhibition of colony formation,B16-F1 melanoma cells; 20 nM,effectively inhibited
same,inhibition of metastasis of melanoma to the lungs,[2],inhibition
"COc1cc(C(=O)c2c[nH]c(-c3ccc(C)cc3)n2)cc(OC)c1OC [12da, (2-(p-tolyl)-1H-imidazol-4-yl)(3,4,5-trimethoxyphenyl)methanone]","calculated CI values, all concentrations tested",A375RF21,0.53-0.70
same,G2/M arrest,A375RF21 cells [3]; 24 h,induced G2/M arrest
same,effect on pERK or total ERK level,"[4]; A375RF21, 48 h incubation",no obvious effect
same,IC50,OVCAR-8,47 nM
same,IC50,NCl/ADR-RES,19 nM
same,inhibition of tubulin polymerization,Bovine brain tubulin [1],inhibited tubulin polymerization
same,inhibition of colony formation,B16-F1 melanoma cells; 20 nM,effectively inhibited
same,inhibition of metastasis of melanoma to the lungs,[2],inhibition
same,pAKT/tAKT inhibition,pAKT/tAKT in WM164 cells,strong dose-dependent pAKT/tAKT inhibition effects
same,pAKT/tAKT inhibition,[5],strong dose-dependent pAKT/tAKT inhibition effects
same,suppression of parental A375 melanoma tumor growth in vivo,[6],effective
"Cc1ccc(-c2nc(C(=O)c3ccc(F)cc3)c[nH]2)cc1 [12db, (4-fluorophenyl)(2-(p-tolyl)-1H-imidazol-4-yl)methanone]",inhibition of tubulin polymerization,Bovine brain tubulin [1],inhibited tubulin polymerization
"COc1cc(C(=O)c2c[nH]c(-c3cc(OC)c(OC)c(OC)c3)n2)cc(OC)c1OC [12ea, (3,4,5-trimethoxyphenyl)(2-(3,4,5-trimethoxyphenyl)-1H-imidazol-4-yl)methanone]",IC50,[7],1000 to 50000 nM
"O=C(c1ccc(F)cc1)c1c[nH]c(-c2ccc(Cl)cc2)n1 [12fb, (2-(4-chlorophenyl)-1H-imidazol-4-yl)(4-fluorophenyl)methanone]",inhibition of colony formation,B16-F1 melanoma cells; 100 nM,effective inhibition
same,tolerability,[8],well tolerated dose
same,inhibition of metastasis of melanoma to the lungs,[2],inhibition
"O=C(c1ccc(F)cc1)c1c[nH]c(-c2ccccc2C(F)(F)F)n1 [12ib, (4-fluorophenyl)(2-(2-(trifluoromethyl)phenyl)-1H-imidazol-4-yl)methanone]",IC50,[7],1000 to 50000 nM
"O=C(c1ccc(F)cc1)c1c[nH]c(-c2ccc(OCc3ccccc3)cc2)n1 [12jb, (2-(4-(benzyloxy)phenyl)-1H-imidazol-4-yl)(4-fluorophenyl)methanone]",fold increase in activity compared with the para-hydroxy compound 12kb,[7]; discussion of Table 9,440 fold
COc1cc(C(=O)c2c[nH]c(-c3ccc(O)cc3)n2)cc(O)c1OC [12kc],IC50,A375,10000 nM
COc1ccc(C(=O)c2nc(-c3cc(OC)c(OC)c(OC)c3)c[nH]2)cc1 [70y],IC50,Du 145,> 50000 nM
"CC(=O)O[C@@]12CO[C@@H]1C[C@H](O)[C@@]1(C)C(=O)[C@H](O)C3=C(C)[C@@H](OC(=O)[C@H](O)[C@@H](NC(=O)OC(C)(C)C)c4ccccc4)C[C@@](O)([C@@H](OC(=O)c4ccccc4)[C@H]21)C3(C)C [Docetaxel, reference compound]",G2/M arrest,A375RF21 cells [3]; 24 h,induced G2/M arrest
same,induction of cell apoptosis (DNA-histone complexes),PC-3,highly potent to induce apoptosis
same,induction of cell apoptosis (DNA-histone complexes),PC-3/TxR,weaker
same,"Tumor size, End",PC-3/TxR tumors; IV 10 mpk,1774 ± 183 mm^3
same,"Tumor size, Start",PC-3/TxR tumors; IV 10 mpk,143 ± 20 mm^3
same,"Tumor size, End",PC-3/TxR tumors; IV 20 mpk,999 ± 905 mm^3
same,"Tumor size, Start",PC-3/TxR tumors; IV 20 mpk,170 ± 86 mm^3
same,"Body weight, End",PC-3 tumors; IV 10 mpk,24 ± 2 g
same,"Body weight, End",PC-3 tumors; IV 20 mpk,24 ± 3 g
same,"cell apoptosis or death (sum of Q1, Q2 and Q4)",A375RF21 cells [9],6.4±3.0%
CCCS(=O)(=O)Nc1ccc(F)c(C(=O)c2c[nH]c3ncc(-c4ccc(Cl)cc4)cc23)c1F [Vemurafenib],G0/G1 arrest,"A375RF21 cells [3]; A375RF21, 1 μM, 24 h",could not arrest
same,concentration needed to produce G0/G1 cell cycle arrest,"A375RF21 cells [3]; resistant A375RF21, single agent",≥ 30 µM
same,G0/G1 arrest,"A375 cells [10]; A375, 1 μM, 24 h",effectively arrested
same,concentration needed to produce G0/G1 cell cycle arrest,"A375 cells [10]; parental A375, single agent",less than 1 μM
same,level of pAKT relative to tAKT,"[4]; A375RF21, 48 h, quantified lane density",70%
same,IC50,A375 cells [11],570 ± 30 nM
same,effect on tubulin polymerization,Bovine brain tubulin [12],did not significantly influence tubulin polymerization
same,effect on tubulin polymerization,Bovine brain tubulin [12]; listed as vemurafenib,did not have any effect on tubulin polymerization
same,"cell apoptosis or death (sum of Q1, Q2 and Q4)",A375RF21 cells [9],11.9±3.5%
same,IC50,"A375RF21 cells [13]; Homo sapiens, read-out: IC50 for proliferation inhibition",28900 ± 600 nM
same,fold increase of IC50 in A375RF21 versus parental A375,A375RF21 cells [13]; MTS assay,over 50 fold
